What was measured:
Assay type in all cases: in vivo, C57Bl/6 mice
[1] = system: experimental allergic encephalomyelitis (EAE) mice; test: Prophylactic oral treatment (dapansutrile-enriched diet) in EAE mice
Description: (§1) Active immunization was done in female adult (8 weeks old) C57Bl/6 mice. Briefly, mice were subcutaneously injected with […] of myelin oligodendrocyte glycoprotein (MOG)35-55 peptide ([…], SEQ ID NO: 1) emulsified in complete Freund's Adjuvant (Sigma Aldrich) supplemented with 4 mg of micobacterioum tuberculosis H37RA (DIFCO Laboratories). On day 0 and 2 post-immunization, mice were also injected intraperitoneally (i.p.) with 500 ng of pertussis toxin (List Biological Laboratories).
(§2) Animals were monitored daily for signs of EAE and the scoring system is as follows: 0=no clinical symptoms, normal walking; 0.5=partial paralyzed tail, 1=fully paralyzed tail; 2=mild hind-limb weakness, quick righting reflex; 3=severe hind-limb weakness, slow righting reflex, unable to bear weight; 3.5=severe hind-limb weakness and partial paralysis of hind limb; 4=complete paralysis of at least one hind limbs; 4.5=complete paralysis of one or both one hind limbs and trunk weakness; 5=complete paralysis of one or both hind limbs, forelimb weakness or paralysis; 6=mouse is found dead by EAE.
(§3) EAE mice were euthanized at either day 21 or 23 post-immunization with an overdose of pentobarbital sodium (Dolethal) and transcardially perfused with 4% paraformaldehyde (PFA) in 0.1M phosphate buffer (PB). Lumbar segments of spinal cords were harvested, post-fixed in 4% PFA for 2 hours and cryoprotected in 30% sucrose in 0.1M at 4° C. for at least 48 hours. Spinal cords were embedded in TissueTek OCT (Sakura), cut in transversal sections (15 μm-thick) with a cryostat (Leica) between L3 and L5 segments and serially picked up on gelatine-coated glass slides. Samples were stored at −20° C.
(§4) Sections were stained with Luxol Fast Blue (LFB) (Sigma Aldrich). Briefly, after a graded dehydration, sections were placed in 1 mg/mL of LFB solution in 96% EtOH and 0.05% acetic acid overnight at 37° C. and protected from light. Then, slides were washed with 96% EtOH, rehydrated in distilled water and placed in a 0.5 mg/mL Li2CO3 solution for 3-5 minutes at room temperature. Finally, sections were washed in distilled water, dehydrated again in 100% EtOH and mounted in DPX (Sigma Aldrich). To assess the demyelinated area in the spinal cord, 6 random images per mice were captured at 10× magnification with an Olympus BX51 and the attached Olympus DP73 Camera. The total demyelinated area within the spinal cord was measured with Image J image analysis software.
(§5) EAE induction, functional assessment, and histological analysis were the same as those described in Example 2.
Starting on day 0 (day of immunization), EAE-mice were fed either a dapansutrile-enriched diet or a standard diet. […]

[2] = system: experimental allergic encephalomyelitis (EAE) mice; test: Prophylactic intraperitoneal treatment of dapansutrile in EAE mice; conditions: 60 mg/kg i.p. twice daily, Day 0 to Day 21
Description: as §1
Starting on day 0 (day of immunization), mice were injected intraperitoneally twice daily with dapansutrile (OLT1177™, 60 mg/kg) or saline until the end of the study (Day 21). Each treated group had 10 mice.
as §2, with “EAE. […]” for “EAE.”

[3] = system: experimental allergic encephalomyelitis (EAE) mice; test: Oral gavage treatment with dapansutrile in EAE mice starting at disease onset
Description: as §1, §2, §3, §4, §5
60 mg/kg of dapansutrile was solubilized with distilled water and administered daily by oral gavage at 60 mg/kg animal weight to mice twice per day. […] Control mice were administered distilled water at the same days. […]

[4] = diet with 3.75 g dapansutrile per kg food, Day 0 to Day 23, vs standard diet (FIG. 2B)
[5] = 60 mg/kg oral gavage twice daily from disease onset, vs vehicle (FIG. 3B)

Structure (SMILES): CS(=O)(=O)CCC#N [dapansutrile, 3-methanesulfonylpropionitrile]
- daily EAE clinical scores after disease onset ([1]; diet with 3.75 g dapansutrile per kg food (about 50 mg/kg/day), Day 0 to Day 23, vs standard diet (FIG. 2A)): lower daily EAE clinical scores
- cumulative EAE score [1, 4]: lower cumulative EAE scores
- maximum EAE score [1, 4]: lower maximum EAE scores
- reduction of demyelination in the spinal cord ([1]; diet with 3.75 g dapansutrile per kg food, 23 days after immunization, vs standard food (FIG. 2C)): about 2 fold
- demyelination in the lumbar spinal cord (LFB staining) ([2]; vs saline (FIG. 1B)): reduced the demyelination in the spinal cord
- EAE clinical score ([2]; vs saline, significant from day 11 to day 21 (FIG. 1A)): significant lower disease scores
- reduction in the EAE score compared to vehicle ([3]; 60 mg/kg oral gavage twice daily from disease onset (FIG. 3A)): about 1 point
- cumulative clinical EAE score [3, 5]: significantly reduced
- maximum clinical EAE score [3, 5]: significantly reduced
- demyelination in LFB stained spinal cords ([3]; 60 mg/kg oral gavage twice daily from disease onset, vs vehicle (FIG. 3C)): protection against demyelination
